In ChEMBL document CHEMBL4257547, “Chemical modulation of transcription factors” (Medchemcomm, 2018):

Columns and labels:
Homo sapiens = species on record: Homo sapiens; assay: Selectivity ratio of IC50 for inhibition of recombinant His6-tagged human Max homodimer/HEX-tagged double-stranded oligonucleotide complex formation to IC50 for inhibition of recombinant His6-tagged bHLH-LZ domain of human Myc/His6-tagged human Max/HEX-tagged double-stranded oligonucleotide complex formation
B16-F10 = assay: Cytotoxicity against mouse B16F10 cells assessed as decrease in cell viability after 24 hrs by MTT assay; format: functional, cell-based; conditions: B16-F10, 24 h
[1] = Inhibition of [32P]-labeled CREB KID (unknown origin) binding to GST-fused mouse CBP KIX domain preincubated with GST-fused CBP for 15 mins followed by CREB addition and measured after 30 mins by SDS-gel electrophoresis/autoradiographic method; parameters: species or system Homo sapiens
[2] = molecular target: Bromodomain-containing protein 4 (Homo sapiens, UniProt O60885); assay: Inhibition of human His-tagged BRD4 expressed in Escherichia coli BL21(DE3)-R3-pRARE2 cells preincubated for 30 mins followed by biotinylated acetyl-histone addition and measured after 30 mins by AlphaScreen method
[3] = Protein binding in mouse plasma after 4 hrs by rapid equilibrium dialysis method; format: ADME, cell-free; conditions: read-out: PPB
[4] = molecular target: Mitogen-activated protein kinase kinase kinase 14 (Homo sapiens, UniProt Q99558); assay: Inhibition of NIK (unknown origin) by HTRF method
Chain of Mitogen-activated protein kinase kinase kinase 14 (Q99558 whole entry): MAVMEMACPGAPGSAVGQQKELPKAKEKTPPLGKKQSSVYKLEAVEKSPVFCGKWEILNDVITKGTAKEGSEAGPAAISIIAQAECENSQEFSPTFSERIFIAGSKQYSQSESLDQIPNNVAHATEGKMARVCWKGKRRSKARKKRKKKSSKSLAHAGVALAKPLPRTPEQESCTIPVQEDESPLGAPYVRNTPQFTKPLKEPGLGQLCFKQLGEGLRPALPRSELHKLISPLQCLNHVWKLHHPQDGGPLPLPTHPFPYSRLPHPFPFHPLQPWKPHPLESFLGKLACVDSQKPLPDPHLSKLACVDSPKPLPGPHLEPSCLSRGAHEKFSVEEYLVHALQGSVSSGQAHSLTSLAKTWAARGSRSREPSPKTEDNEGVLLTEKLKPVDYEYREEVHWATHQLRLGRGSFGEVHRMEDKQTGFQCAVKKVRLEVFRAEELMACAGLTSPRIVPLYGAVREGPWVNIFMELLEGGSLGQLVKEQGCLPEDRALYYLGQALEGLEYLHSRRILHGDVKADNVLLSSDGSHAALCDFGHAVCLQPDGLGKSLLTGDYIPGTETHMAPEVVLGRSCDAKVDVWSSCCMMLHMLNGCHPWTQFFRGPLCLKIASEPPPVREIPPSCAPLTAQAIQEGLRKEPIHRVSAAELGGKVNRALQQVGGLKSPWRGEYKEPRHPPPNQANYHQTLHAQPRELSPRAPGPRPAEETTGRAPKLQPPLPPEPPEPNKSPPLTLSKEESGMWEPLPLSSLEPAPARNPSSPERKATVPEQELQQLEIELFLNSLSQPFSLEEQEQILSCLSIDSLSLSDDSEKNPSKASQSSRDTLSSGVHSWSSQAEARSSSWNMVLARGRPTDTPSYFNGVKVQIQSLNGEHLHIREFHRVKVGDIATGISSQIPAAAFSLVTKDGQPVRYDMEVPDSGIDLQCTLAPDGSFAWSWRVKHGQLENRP

Q: With COC(=O)c1ccc(Nc2ccc([N+](=O)[O-])c3nonc23)c(-c2ccc(C)cc2)c1 as the molecule, how does the Ratio IC50 (Homo sapiens) read?
A: 2

Q: With CC(C)(O)/C=C/C(=O)[C@@](C)(O)[C@H]1C(O)C[C@@]2(C)[C@@H]3CC=C4[C@@H](C=C(O)C(=O)C4(C)C)[C@]3(C)CC[C@]12C (some centres not stated) as the molecule, how does the IC50 (B16-F10) read?
A: 10000 nM

Q: With O=C(Nc1ccc(Cl)cc1)c1cc2ccccc2cc1OP(=O)(O)O as the molecule, how does the IC50 [1] read?
A: 90000 nM

Q: With Cc1nnn2c1-c1ccc(-c3ccc(N)nc3)cc1C(c1ccc(Cl)cc1)=NC2 as the molecule, how does the IC50 [2] read?
A: 6 nM

Q: With Cc1nnn2c1-c1ccc(-c3cc[nH]n3)cc1C(c1ccc(Cl)cc1)=NC2 as the molecule, how does the IC50 [2] read?
A: 2 nM

Q: For COc1ccc(C2=Nn3c(nnc3-c3cc(-c4ccc(Cl)cc4)n[nH]3)SC2C)cc1 (configuration not stated), which fraction unbound at 4 h [3] is on record?
A: < 0.001

Q: Which Ki [4] does the source give for C[C@](O)(C#Cc1ccc2ncc(-c3nc(N)ncc3Cl)n2c1)c1nccs1 here?
A: 0.3 nM
